# Data: patent US11530210B2, “Substituted heteroaromatic pyrazolo-pyridines and their use as GLUN2B receptor modulators” (JANSSEN PHARMACEUTICA NV, priority 2019, dated 2022)
# Counter-ions that a name gives are not always drawn.
# Molecular target: T1, human GluN1/GluN2B NMDA receptors (Homo sapiens, UniProt Q13224)
# T1 construct: expressed in transfected cells
# Experiment: Calcium flux (FLIPR) assay on cloned human NR1/GluN2B ion channels expressed in mammalian cells (standard and HTS variants)
# Assay type: cell-based
# Conditions: cells expressing human GluN1/GluN2B, glutamate and glycine co-agonists
# Summary of the method: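 Tet-On-induced stable cell line loaded with Calcium 5 dye; compounds applied 5 min (agonist check), then glutamate at ~EC40 plus 10 μM glycine for 5 min. Buffer pH 7.4 with 0.5 mM MgCl2 in dye loading (standard) or 1.5 mM (HTS). FLIPR fluorescence normalized to control wells; (+)MK-801 as antagonist control.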
# T1 sequence (Q13224 27-1484, other chains not shown): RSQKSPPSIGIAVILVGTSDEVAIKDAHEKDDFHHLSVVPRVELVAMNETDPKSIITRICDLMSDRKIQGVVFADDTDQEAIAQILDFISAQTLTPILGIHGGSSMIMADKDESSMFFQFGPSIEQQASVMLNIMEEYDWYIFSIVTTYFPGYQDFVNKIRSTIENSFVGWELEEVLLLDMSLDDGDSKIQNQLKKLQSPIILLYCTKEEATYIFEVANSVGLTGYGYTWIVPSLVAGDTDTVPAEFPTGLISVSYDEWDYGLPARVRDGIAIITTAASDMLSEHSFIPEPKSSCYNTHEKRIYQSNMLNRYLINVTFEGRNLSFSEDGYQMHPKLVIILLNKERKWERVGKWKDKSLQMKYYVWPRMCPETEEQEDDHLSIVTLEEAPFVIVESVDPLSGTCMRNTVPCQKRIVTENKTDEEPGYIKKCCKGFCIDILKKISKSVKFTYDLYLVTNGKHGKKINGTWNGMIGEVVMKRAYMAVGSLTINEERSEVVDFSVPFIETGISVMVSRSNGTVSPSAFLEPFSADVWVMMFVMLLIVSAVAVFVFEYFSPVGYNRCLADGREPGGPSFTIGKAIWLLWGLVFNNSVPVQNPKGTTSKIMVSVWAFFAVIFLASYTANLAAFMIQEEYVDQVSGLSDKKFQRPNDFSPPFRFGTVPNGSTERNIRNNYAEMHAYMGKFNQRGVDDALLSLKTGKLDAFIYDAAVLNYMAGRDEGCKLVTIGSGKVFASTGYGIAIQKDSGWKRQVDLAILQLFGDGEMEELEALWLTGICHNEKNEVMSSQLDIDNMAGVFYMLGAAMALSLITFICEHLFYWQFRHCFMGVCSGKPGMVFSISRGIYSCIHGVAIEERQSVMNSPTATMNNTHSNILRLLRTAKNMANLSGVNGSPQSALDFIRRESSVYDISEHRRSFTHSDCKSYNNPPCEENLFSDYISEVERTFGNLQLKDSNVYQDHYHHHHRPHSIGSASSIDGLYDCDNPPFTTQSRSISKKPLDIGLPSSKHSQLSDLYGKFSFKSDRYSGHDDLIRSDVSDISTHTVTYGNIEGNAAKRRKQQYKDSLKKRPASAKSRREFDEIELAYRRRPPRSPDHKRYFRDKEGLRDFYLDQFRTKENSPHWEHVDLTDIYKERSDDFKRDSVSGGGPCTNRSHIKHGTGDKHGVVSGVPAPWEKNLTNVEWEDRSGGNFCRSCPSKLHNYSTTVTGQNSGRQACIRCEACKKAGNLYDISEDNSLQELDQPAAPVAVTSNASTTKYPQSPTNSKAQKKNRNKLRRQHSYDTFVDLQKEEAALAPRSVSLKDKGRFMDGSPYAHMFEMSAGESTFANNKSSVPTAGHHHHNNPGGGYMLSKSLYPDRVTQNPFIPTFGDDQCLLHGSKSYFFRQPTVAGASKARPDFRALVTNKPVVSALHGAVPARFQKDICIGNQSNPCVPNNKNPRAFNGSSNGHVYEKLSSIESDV
row,Compound,IC50
1,"Cc1nnc(Cn2ncc3ncc(-c4ccc(F)c(C)c4)cc32)s1 [Example 132, 2-[[6-(4-Fluoro-3-methyl-phenyl)pyrazolo[4,3-b]pyridin-1-yl]methyl]-5-methyl-1,3,4-thiadiazole]",33 nM
2,"Cc1nnc(Cn2ncc3ncc(-c4ccc(F)c(OC(F)F)c4)cc32)s1 [Example 133, 2-[[6-[3-(Difluoromethoxy)-4-fluoro-phenyl]pyrazolo[4,3-b]pyridin-1-yl]methyl]-5-methyl-1,3,4-thiadiazole]",72 nM
3,"Cc1nnc(Cn2ncc3ncc(-c4ccc(Cl)c(OC(F)F)c4)cc32)s1 [Example 135, 2-[[6-[4-Chloro-3-(difluoromethoxy)phenyl]pyrazolo[4,3-b]pyridin-1-yl]methyl]-5-methyl-1,3,4-thiadiazole]",133 nM
4,"Cc1nnc(Cn2ncc3ncc(-c4ccc(F)c(C)c4F)cc32)s1 [Example 136, 2-[[6-(2,4-Difluoro-3-methyl-phenyl)pyrazolo[4,3-b]pyridin-1-yl]methyl]-5-methyl-1,3,4-thiadiazole]",17 nM
5,"Cc1csc(-c2cnc3cnn(Cc4cccnc4)c3c2)c1 [Example 137, 6-(4-Methyl-2-thienyl)-1-(3-pyridylmethyl)pyrazolo[4,3-b]pyridine]",116 nM
6,"Cc1cncc(Cn2ncc3ncc(-c4cc(C)cs4)cc32)c1 [Example 138, 1-[(5-Methyl-3-pyridyl)methyl]-6-(4-methyl-2-thienyl)pyrazolo[4,3-b]pyridine]",159 nM
7,"Cc1ccc(-c2cnc3cnn(Cc4cccnc4)c3c2)s1 [Example 139, 6-(5-Methyl-2-thienyl)-1-(3-pyridylmethyl)pyrazolo[4,3-b]pyridine]",89 nM
8,"N#Cc1cncc(Cn2ncc3ncc(-c4ccc(Cl)s4)cc32)c1 [Example 140, 5-[[6-(5-Chloro-2-thienyl)pyrazolo[4,3-b]pyridin-1-yl]methyl]pyridine-3-carbonitrile]",170 nM
9,"Clc1ccsc1-c1cnc2cnn(Cc3cccnc3)c2c1 [Example 141, 6-(3-Chloro-2-thienyl)-1-(3-pyridylmethyl)pyrazolo[4,3-b]pyridine]",61 nM
10,"N#Cc1cncc(Cn2ncc3ncc(-c4ccc(C(F)F)s4)cc32)c1 [Example 142, 5-[[6-[5-(Difluoromethyl)-2-thienyl]pyrazolo[4,3-b]pyridin-1-yl]methyl]pyridine-3-carbonitrile]",219 nM
11,"Fc1ccc(Cn2ncc3ncc(-c4ccc(C(F)(F)F)s4)cc32)cn1 [Example 143, 1-((6-Fluoropyridin-3-yl)methyl)-6-(5-(trifluoromethyl)thiophen-2-yl)-1H-pyrazolo[4,3-b]pyridine]",132 nM
12,"N#Cc1cncc(Cn2ncc3ncc(-c4ccc(C(F)(F)F)s4)cc32)c1 [Example 144, 5-[[6-[5-(Trifluoromethyl)-2-thienyl]pyrazolo[4,3-b]pyridin-1-yl]methyl]pyridine-3-carbonitrile]",582 nM
13,"Cc1cccc(-c2cnc3cnn(Cc4ccc(F)nc4)c3c2)c1 [Example 145, 1-[(6-Fluoro-3-pyridyl)methyl]-6-(m-tolyl)pyrazolo[4,3-b]pyridine]",36 nM
14,"Cc1cccc(-c2cnc3cnn(Cc4cncc(F)c4)c3c2)c1 [Example 146, 1-[(5-Fluoro-3-pyridyl)methyl]-6-(m-tolyl)pyrazolo[4,3-b]pyridine]",9 nM
15,"Cc1cccc(-c2cnc3c(F)nn(Cc4cncc(F)c4)c3c2)c1 [Example 147, 3-Fluoro-1-[(5-fluoro-3-pyridyl)methyl]-6-(m-tolyl)pyrazolo[4,3-b]pyridine]",48 nM
16,"Fc1cncc(Cn2ncc3ncc(-c4ccc(Cl)cc4)cc32)c1 [Example 148, 6-(4-Chlorophenyl)-1-[(5-fluoro-3-pyridyl)methyl]pyrazolo[4,3-b]pyridine trifluoroacetate salt]",634 nM
17,"Fc1ccc(-c2cnc3cnn(Cc4ccccn4)c3c2)cc1 [Example 149, 6-(4-Fluorophenyl)-1-(2-pyridylmethyl)pyrazolo[4,3-b]pyridine]",3460 nM
18,"COc1cncc(Cn2ncc3ncc(-c4ccc(F)cc4)cc32)c1 [Example 150, 6-(4-Fluorophenyl)-1-[(5-methoxy-3-pyridyl)methyl]pyrazolo[4,3-b]pyridine]",410 nM
19,"Fc1ccc(-c2cnc3cnn(Cc4cncc(OC(F)F)c4)c3c2)cc1 [Example 151, 1-[[5-(Difluoromethoxy)-3-pyridyl]methyl]-6-(4-fluorophenyl)pyrazolo[4,3-b]pyridine]",1150 nM
20,"Fc1cccc(-c2cnc3cnn(Cc4ccccn4)c3c2)c1 [Example 152, 6-(3-Fluorophenyl)-1-(2-pyridylmethyl)pyrazolo[4,3-b]pyridine]",2180 nM
21,"Fc1cncc(Cn2ncc3ncc(-c4ccccc4F)cc32)c1 [Example 153, 6-(2-Fluorophenyl)-1-[(5-fluoro-3-pyridyl)methyl]pyrazolo[4,3-b]pyridine]",720 nM

row,Compound,IC50
1,"COc1cccc(-c2cnc3cnn(Cc4ccccn4)c3c2)c1 [Example 154, 6-(3-Methoxyphenyl)-1-(2-pyridylmethyl)pyrazolo[4,3-b]pyridine]",7370 nM
2,"COc1cccc(-c2cnc3cnn(Cc4ccc(F)nc4)c3c2)c1 [Example 155, 1-[(6-Fluoro-3-pyridyl)methyl]-6-(3-methoxyphenyl)pyrazolo[4,3-b]pyridine]",1650 nM
3,"FC(F)c1cccc(-c2cnc3cnn(Cc4ccccn4)c3c2)c1 [Example 156, 6-[3-(Difluoromethyl)phenyl]-1-(2-pyridylmethyl)pyrazolo[4,3-b]pyridine]",740 nM
4,"N#Cc1cncc(Cn2ncc3ncc(-c4cccc(C(F)F)c4)cc32)c1 [Example 157, 5-[[6-[3-(Difluoromethyl)phenyl]pyrazolo[4,3-b]pyridin-1-yl]methyl]pyridine-3-carbonitrile]",64 nM
5,"FC(F)c1cccc(-c2cnc3cnn(Cc4cncc(Cl)c4)c3c2)c1 [Example 158, 1-[(5-Chloro-3-pyridyl)methyl]-6-[3-(difluoromethyl)phenyl]pyrazolo[4,3-b]pyridine]",14 nM
6,"Fc1cncc(Cn2ncc3ncc(-c4cccc(OC(F)F)c4)cc32)c1 [Example 159, 6-[3-(Difluoromethoxy)phenyl]-1-[(5-fluoro-3-pyridyl)methyl]pyrazolo[4,3-b]pyridine]",249 nM
7,"Cc1cncc(Cn2ncc3ncc(-c4cccc(C(C)(F)F)c4)cc32)c1 [Example 160, 6-[3-(1,1-Difluoroethyl)phenyl]-1-[(5-methyl-3-pyridyl)methyl]pyrazolo[4,3-b]pyridine]",112 nM
8,"CC(F)(F)c1cccc(-c2cnc3cnn(Cc4cncc(F)c4)c3c2)c1 [Example 161, 6-[3-(1,1-Difluoroethyl)phenyl]-1-[(5-fluoro-3-pyridyl)methyl]pyrazolo[4,3-b]pyridine]",40 nM
9,"FC(F)(F)c1cccc(-c2cnc3cnn(Cc4ccccn4)c3c2)c1 [Example 162, 1-(2-Pyridylmethyl)-6-[3-(trifluoromethyl)phenyl]pyrazolo[4,3-b]pyridine]",930 nM
10,"FC(F)(F)c1cccc(-c2cnc3cnn(Cc4cccnc4)c3c2)c1 [Example 163, 1-(3-Pyridylmethyl)-6-[3-(trifluoromethyl)phenyl]pyrazolo[4,3-b]pyridine hydrochloride salt]",90 nM
11,"FC(F)(F)c1cccc(-c2cnc3cnn(Cc4ccncc4)c3c2)c1 [Example 164, 1-(4-Pyridylmethyl)-6-[3-(trifluoromethyl)phenyl]pyrazolo[4,3-b]pyridine hydrochloride salt]",798 nM
12,"Cc1ccc(Cn2ncc3ncc(-c4cccc(C(F)(F)F)c4)cc32)cn1 [Example 165, 1-[(6-Methyl-3-pyridyl)methyl]-6-[3-(trifluoromethyl)phenyl]pyrazolo[4,3-b]pyridine]",2170 nM
13,"Cc1ncccc1Cn1ncc2ncc(-c3cccc(C(F)(F)F)c3)cc21 [Example 166, 1-[(2-Methyl-3-pyridyl)methyl]-6-[3-(trifluoromethyl)phenyl]pyrazolo[4,3-b]pyridine]",870 nM
14,"Cc1cncc(Cn2ncc3ncc(-c4cccc(C(F)(F)F)c4)cc32)c1 [Example 167, 1-[(5-Methyl-3-pyridyl)methyl]-6-[3-(trifluoromethyl)phenyl]pyrazolo[4,3-b]pyridine]",250 nM
15,"Cc1ccncc1Cn1ncc2ncc(-c3cccc(C(F)(F)F)c3)cc21 [Example 168, 1-[(4-Methyl-3-pyridyl)methyl]-6-[3-(trifluoromethyl)phenyl]pyrazolo[4,3-b]pyridine trifluoroacetate salt]",161 nM
16,"Fc1ccc(Cn2ncc3ncc(-c4cccc(C(F)(F)F)c4)cc32)cn1 [Example 169, 1-[(6-Fluoro-3-pyridyl)methyl]-6-[3-(trifluoromethyl)phenyl]pyrazolo[4,3-b]pyridine]",234 nM
17,"Fc1ncccc1Cn1ncc2ncc(-c3cccc(C(F)(F)F)c3)cc21 [Example 170, 1-[(2-Fluoro-3-pyridyl)methyl]-6-[3-(trifluoromethyl)phenyl]pyrazolo[4,3-b]pyridine]",1040 nM
18,"Fc1cncc(Cn2ncc3ncc(-c4cccc(C(F)(F)F)c4)cc32)c1 [Example 171, 1-[(5-Fluoro-3-pyridyl)methyl]-6-[3-(trifluoromethyl)phenyl]pyrazolo[4,3-b]pyridine]",212 nM
19,"COc1ncccc1Cn1ncc2ncc(-c3cccc(C(F)(F)F)c3)cc21 [Example 172, 1-[(2-Methoxy-3-pyridyl)methyl]-6-[3-(trifluoromethyl)phenyl]pyrazolo[4,3-b]pyridine trifluoroacetate salt]",7780 nM
20,"COc1cncc(Cn2ncc3ncc(-c4cccc(C(F)(F)F)c4)cc32)c1 [Example 173, 1-[(5-Methoxy-3-pyridyl)methyl]-6-[3-(trifluoromethyl)phenyl]pyrazolo[4,3-b]pyridine]",210 nM
21,"FC(F)(F)c1cccc(-c2cnc3cnn(Cc4ccc(C(F)(F)F)nc4)c3c2)c1 [Example 174, 6-[3-(Trifluoromethyl)phenyl]-1-[[6-(trifluoromethyl)-3-pyridyl]methyl]pyrazolo[4,3-b]pyridine]",11900 nM
